According to PubChem BioAssay (NCI):
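The compound was tested at five concentrations on cells cultured in 96-well plates, with a 48-hour exposure period. The concentration for 50% growth inhibition is given as GI50. TGI: total growth inhibition.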

Assays:
Assay in all cases: inhibition of tumour cell growth, NCI panel, 48 h
[1] = tested on: EKVX NSCLC
[2] = tested on: ACHN renal
[3] = tested on: DU-145 prostate
[4] = tested on: PC-3 prostate
[5] = tested on: SK-OV-3 ovarian
[6] = tested on: SF-295 CNS
[7] = tested on: HCC-2998 colon
[8] = tested on: UACC-62 melanoma
[9] = tested on: HT29 colon
[10] = tested on: CCRF-CEM leukemia
[11] = tested on: TK-10 renal
[12] = tested on: SK-MEL-28 melanoma
[13] = tested on: NCI/ADR-RES ovarian
[14] = tested on: NCI-H460 lung
[15] = tested on: A498 renal
[16] = tested on: SF-539 CNS
[17] = tested on: OVCAR-8 ovarian
[18] = tested on: SF-268 CNS
[19] = tested on: SK-MEL-2 melanoma
[20] = tested on: SNB-19 CNS
[21] = tested on: SNB-75 CNS
[22] = tested on: BT-549 breast
[23] = tested on: SK-MEL-5 melanoma
[24] = tested on: IGROV1 ovarian
[25] = tested on: MCF7 breast
[26] = tested on: NCI-H23 lung
[27] = tested on: K-562 leukemia
[28] = tested on: LOX IMVI melanoma
[29] = tested on: T-47D breast

c1ccc(OCC[P+](c2ccccc2)(c2ccccc2)c2ccccc2)cc1
GI50 [1]: 701 nM | TGI [1]: > 40.1 µM | GI50 [2]: 8.47 µM | TGI [2]: > 81.9 µM | GI50 [3]: 2110 nM | TGI [3]: 22.8 µM | GI50 [4]: 535 nM | TGI [4]: 11.6 µM | GI50 [5]: 2080 nM | TGI [5]: 8.16 µM | GI50 [6]: 2050 nM | TGI [6]: 15.7 µM | GI50 [7]: 702 nM | TGI [7]: 12.9 µM | GI50 [8]: 678 nM | TGI [8]: 8.99 µM | GI50 [9]: 308 nM | TGI [9]: 10.9 µM | GI50 [10]: 981 nM | TGI [10]: > 41.4 µM | GI50 [11]: 1730 nM | TGI [11]: 14.5 µM | GI50 [12]: 1240 nM | TGI [12]: 9.81 µM | GI50 [13]: > 66.1 µM | TGI [13]: > 100 µM | GI50 [14]: 1350 nM | TGI [14]: 10.4 µM | GI50 [15]: 3.53 µM | TGI [15]: 16.6 µM | GI50 [16]: 1890 nM | TGI [16]: 13.1 µM | GI50 [17]: 1540 nM | TGI [17]: 15 µM | GI50 [18]: 2050 nM | TGI [18]: 13.5 µM | GI50 [19]: 1060 nM | TGI [19]: 10.8 µM | GI50 [20]: 1390 nM | TGI [20]: 15.1 µM | GI50 [21]: 721 nM | TGI [21]: 5.99 µM | GI50 [22]: 1650 nM | TGI [22]: 12 µM | GI50 [23]: 416 nM | TGI [23]: 1560 nM | GI50 [24]: 905 nM | TGI [24]: 11.8 µM | GI50 [25]: 1240 nM | TGI [25]: 11.1 µM | GI50 [26]: 938 nM | TGI [26]: 6.7 µM | GI50 [27]: 743 nM | TGI [27]: > 85.5 µM | GI50 [28]: 926 nM | TGI [28]: 9.68 µM | GI50 [29]: 265 nM | TGI [29]: 2400 nM
